We go through 4 molecules from US5693650A, “4-(Quinolin-2-yl-methoxy)-phenyl-acetic acid derivatives” (Bayer Aktiengesellschaft, priority 1994, dated 1997).

In this assay the test system is ApoB-100-associated lipoproteins. Put plainly: Inhibition of the release of ApoB-100-associated lipoproteins from liver cells (HepG2), immunoassay for human LDL. The assay is classed as cell-based. Conditions: release of ApoB-100-associated particles into HepG2 culture supernatant, 50% inhibition of light adsorption at 450 nm vs solvent control. The procedure: The test for detection of the inhibition of the release of ApoB-100-associated lipoproteins from liver cells was carried out in vitro with cultured liver cells, preferably with cells of the human line HepG2. These cells are grown under standard conditions in a medium for culture of eukaryotic cells, preferably in RPMI 1640, with 10% of foetal calf serum. HepG2 cells synthesize and secrete into the culture supernatant ApoB-100-associated lipoprotein particles, which in principle are built up in a similar manner to the VLDL and LDL particles which are to be found in the plasma.
These particles can be detected with an immunoassay for human LDL. This immunoassay is carried out with antibodies which have been induced against human LDL in the rabbit under standard conditions. The anti-LDL antibodies (rab-anti-LDL-ab) were purified by affinity chromatography on an immunosorbent with human LDL. These purified rab-anti-LDL-ab are adsorbed onto the surface of plastic. This adsorption is expediently carried out on the plastic surface of microtiter plates having 96 wells, preferably on MaxiSorp plates (Nunc). If ApoB-100-associated particles are present in the supernatant of HepG2 cells, these can bind to the insolubilized rab-anti-LDL-ab, and an immune complex which is bonded to the plastic surface is formed. Non-bonded proteins are removed by washing. The immune complex on the plastic surface is detected with monoclonal antibodies, which had been induced against human LDL according to standard conditions and purified. These antibodies were conjugated with the enzyme peroxidase (Boehringer, Mannheim). Peroxidase converts the colourless substrate TMB (Kirkegaard and Perry) into a coloured product in the presence of H2 O2. After acidification of the reaction mixture with H2 SO4, the specific light adsorption at 450 nm, which is a measure of the amount of ApoB-100-associated particles which had been secreted into the culture supernatant by the HepG2 cells, is determined.
The IC50 value indicates the concentration of substance at which the light adsorption is inhibited by 50% in comparison with the control (solvent control without substance).

Molecule `O=C(NC(CO)c1cccc(F)c1)C(c1ccc(OCc2ccc3ccccc3n2)cc1)C1CCCC1` (stereo not shown) [Example 15] came in with an IC50 of 500 nM.
Turning to `O=C(NC(CO)c1cccs1)C(c1ccc(OCc2ccc3ccccc3n2)cc1)C1CCCC1` (stereo not shown) [Example 53], half-maximal inhibition (IC50) was put at 250 nM.
In the case of `O=C([C@H](c1ccc(OCc2ccc3ccccc3n2)cc1)C1CCCCCC1)N(CCO)c1ccccc1` [Example 127] it was 130 nM.
`O=C(NCc1ccccc1)[C@H](c1ccc(OCc2ccc3ccccc3n2)cc1)C1CCCCCC1` [Example 141]: the IC50 turned out to be 20 nM.
